From patent US20220079924A1, “GLUCOCORTICOID RECEPTOR MODULATORS” (ORIC Pharmaceuticals, Inc., priority 2018, published 2022)

Molecular target: T1, GR (Homo sapiens, UniProt P04150)
T1 construct: expressed in transfected cells; host or cells: CHO-K1 (CHO-K1-GR-MMTV-Luc reporter cells)
T1 sequence (P04150 1-777): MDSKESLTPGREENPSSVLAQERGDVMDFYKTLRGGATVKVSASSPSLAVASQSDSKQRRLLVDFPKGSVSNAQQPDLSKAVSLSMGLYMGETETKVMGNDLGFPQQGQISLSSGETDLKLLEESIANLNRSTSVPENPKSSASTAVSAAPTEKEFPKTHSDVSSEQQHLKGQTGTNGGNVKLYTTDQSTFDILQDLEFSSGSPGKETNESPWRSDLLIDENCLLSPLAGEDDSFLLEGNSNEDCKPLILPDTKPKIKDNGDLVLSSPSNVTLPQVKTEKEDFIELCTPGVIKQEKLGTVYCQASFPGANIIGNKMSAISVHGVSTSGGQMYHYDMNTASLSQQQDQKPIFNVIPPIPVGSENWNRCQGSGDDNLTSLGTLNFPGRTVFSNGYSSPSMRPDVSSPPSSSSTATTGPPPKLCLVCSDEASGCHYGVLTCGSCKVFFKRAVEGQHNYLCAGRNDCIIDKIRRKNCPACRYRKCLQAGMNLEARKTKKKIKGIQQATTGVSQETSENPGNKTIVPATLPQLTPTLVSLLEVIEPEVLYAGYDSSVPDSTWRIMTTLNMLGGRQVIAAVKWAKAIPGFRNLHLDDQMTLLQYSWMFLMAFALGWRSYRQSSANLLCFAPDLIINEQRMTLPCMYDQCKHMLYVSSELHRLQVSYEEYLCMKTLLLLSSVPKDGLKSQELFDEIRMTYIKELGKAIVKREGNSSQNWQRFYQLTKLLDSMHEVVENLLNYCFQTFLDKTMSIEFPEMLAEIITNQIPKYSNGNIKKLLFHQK
Test: In Vitro GR Luciferase Reporter Assay (antagonist assay)
Assay type: cell-based
Details: CHO-K1-GR-MMTV-Luc reporter cells, 10 nM Dexamethasone, 18-24 hours
Procedure: Example A: In Vitro GR Luciferase Reporter Assay
Cell Line: CHO-K1-GR-MMTV-Luc reporter cells
Culture Media: DMEM (with phenol red)+10% FBS
Assay Media: DMEM (without phenol red)+10% CSS
Culture CHO-K1-GR-MMTV-Luc reporter cells in T175 flasks in Culture Media at conditions less than 90% confluence.
Using Bravo (Agilent) liquid handler:
200× DMSO 1:3 serial dilutions of control and test compounds in 96-well non-sterile V bottom plate in DMSO, 12 points for each compound were prepared.
Prepared 5× compound serial dilutions: Add 97.5 μL/well of Assay Media into 96-well non-sterile V bottom plate then added 2.5 ul of 200× concentration of compounds and mix well.
Seeded cells for Antagonist Assay: 5200 CHO-K1-GR-MMTV-Luc reporter cells were seeded in Greiner #781080 flat clear bottom 384-well white TC plate in 20 ul of Assay Media containing 12.5 nM Dexamethasone (final concentration=10 nM).
Added compounds: 5 μl of 5× compounds were added to appropriate wells and followed with a quick spin (1000 rpm, 10 sec) to bring media and cells to the bottom of plate. The plates were covered with SealMate film to avoid evaporation and placed in 37° C. incubator for approximately 18-24 hours.
Read plates: Equilibrate appropriate amount of Promega OneGlo luciferase reagent to room temperature. Remove the plates from incubator and add 25 uL of OneGlo reagent/well by Bravo and read the plates on Tecan Spark plate reader within 15 minutes.
The ability of the compounds disclosed herein to inhibit GR activity was quantified and the respective IC50 value was determined. Table 1 provides the cellular IC50 values of compounds disclosed herein.

| IC50 | Compound |
| --- | --- |
| ≤ 100 nM | C[C@H]([C@H]1CCC2=Cc3c(cnn3-c3ccc(F)cc3)C[C@]2(C(=O)c2ncc(C(F)(F)F)s2)C1)S(=O)(=O)c1cnn(C)c1 (single isomer, unassigned) [Example 9, ((4aR,6S)-1-(4-Fluorophenyl)-6-((R)-1-((1-methyl-1H-pyrazol-4-yl)sulfonyl)ethyl)-1,4,5,6,7,8-hexahydro-4aH-benzo[f]indazol-4a-yl)(5-(trifluoromethyl)thiazol-2-yl)methanone or ((4aR,6S)-1-(4-fluorophenyl)-6-((S)-1-((1-methyl-1H-pyrazol-4-yl)sulfonyl)ethyl)-1,4,5,6,7,8-hexahydro-4aH-benzo[f]indazol-4a-yl)(5-(trifluoromethyl)thiazol-2-yl)methanone] |
| ≤ 100 nM | C[C@@H]([C@H]1CCC2=Cc3c(cnn3-c3ccc(F)cc3)C[C@]2(C(=O)c2ncc(C(F)(F)F)s2)C1)S(=O)(=O)c1cnn(C)c1 (single isomer, unassigned) [Example 10, ((4aR,6S)-1-(4-Fluorophenyl)-6-((R)-1-((1-methyl-1H-pyrazol-4-yl)sulfonyl)ethyl)-1,4,5,6,7,8-hexahydro-4aH-benzo[f]indazol-4a-yl)(5-(trifluoromethyl)thiazol-2-yl)methanone or ((4aR,6S)-1-(4-fluorophenyl)-6-((S)-1-((1-methyl-1H-pyrazol-4-yl)sulfonyl)ethyl)-1,4,5,6,7,8-hexahydro-4aH-benzo[f]indazol-4a-yl)(5-(trifluoromethyl)thiazol-2-yl)methanone] |
| ≤ 100 nM | Cn1cnc(S(=O)(=O)N(C2CC2)[C@H]2CCC3=Cc4c(cnn4-c4ccc(F)cc4)C[C@]3(C(=O)c3ncc(C(C)(C)C)s3)C2)c1 [Example 1, N-((4aS,6S)-4a-(5-(tert-Butyl)thiazole-2-carbonyl)-1-(4-fluorophenyl)-4,4a,5,6,7,8-hexahydro-1H-benzo[f]indazol-6-yl)-N-cyclopropyl-1-methyl-1H-imidazole-4-sulfonamide] |
| ≤ 100 nM | Cn1cnc(S(=O)(=O)N(C2CC2)[C@H]2CCC3=Cc4c(cnn4-c4ccc(F)cc4)C[C@]3(C(=O)c3cc(F)ccn3)C2)c1 [Example 2, N-Cyclopropyl-N-((4aS,6S)-1-(4-fluorophenyl)-4a-(4-fluoropicolinoyl)-4,4a,5,6,7,8-hexahydro-1H-benzo[f]indazol-6-yl)-1-methyl-1H-imidazole-4-sulfonamide] |
| ≤ 100 nM | Cn1cc(S(=O)(=O)N(C2CC2)[C@H]2CCC3=Cc4c(cnn4-c4ccc(F)nc4)C[C@]3(C(=O)c3cc(F)ccn3)C2)cn1 [Example 3, N-Cyclopropyl-N-((4aS,6S)-4a-(4-fluoropicolinoyl)-1-(6-fluoropyridin-3-yl)-4,4a,5,6,7,8-hexahydro-1H-benzo[f]indazol-6-yl)-1-methyl-1H-pyrazole-4-sulfonamide] |
| ≤ 100 nM | Cn1cnc(S(=O)(=O)N(CC(F)(F)F)[C@H]2CCC3=Cc4c(cnn4-c4ccc(F)cc4)C[C@]3(C(=O)c3cc(F)ccn3)C2)n1 [Example 4, N-((4aS,6S)-1-(4-Fluorophenyl)-4a-(4-fluoropicolinoyl)-4,4a,5,6,7,8-hexahydro-1H-benzo[f]indazol-6-yl)-1-methyl-N-(2,2,2-trifluoroethyl)-1H-1,2,4-triazole-3-sulfonamide] |
| ≤ 100 nM | Cn1cc(S(=O)(=O)N(CCF)[C@H]2CCC3=Cc4c(cnn4-c4ccc(F)cc4)C[C@]3(C(=O)c3cc(F)ccn3)C2)cn1 [Example 5, N-(2-Fluoroethyl)-N-((4aS,6S)-1-(4-fluorophenyl)-4a-(4-fluoropicolinoyl)-4,4a,5,6,7,8-hexahydro-1H-benzo[f]indazol-6-yl)-1-methyl-1H-pyrazole-4-sulfonamide] |
| ≤ 100 nM | CC(C)N([C@H]1CCC2=Cc3c(cnn3-c3ccc(F)cn3)C[C@]2(C(=O)c2cc(C(F)(F)F)ccn2)C1)S(=O)(=O)c1cnn(C)c1 [Example 6, N-((4aS,6S)-1-(5-Fluoropyridin-2-yl)-4a-(4-(trifluoromethyl)picolinoyl)-4,4a,5,6,7,8-hexahydro-1H-benzo[f]indazol-6-yl)-N-isopropyl-1-methyl-1H-pyrazole-4-sulfonamide] |
| ≤ 100 nM | Cn1cnc(S(=O)(=O)[C@H]2CCC3=Cc4c(cnn4-c4ccc(F)cc4)C[C@]3(C(=O)c3ccc(C4CC4)cn3)C2)n1 [Example 7, (5-Cyclopropylpyridin-2-yl)((4aS,6S)-1-(4-fluorophenyl)-6-((1-methyl-1H-1,2,4-triazol-3-yl)sulfonyl)-1,4,5,6,7,8-hexahydro-4aH-benzo[f]indazol-4a-yl)methanone] |
| ≤ 100 nM | Cn1ccc(S(=O)(=O)C(C)(C)[C@H]2CCC3=Cc4c(cnn4-c4ccc(F)cc4)C[C@]3(C(=O)c3cc(F)ccn3)C2)n1 [Example 8, ((4aR,6S)-1-(4-Fluorophenyl)-6-(2-((1-methyl-1H-pyrazol-3-yl)sulfonyl)propan-2-yl)-1,4,5,6,7,8-hexahydro-4aH-benzo[f]indazol-4a-yl)(4-fluoropyridin-2-yl)methanone] |
| ≤ 100 nM | Cn1cnc(S(=O)(=O)N(C2CC2)[C@H]2CCC3=Cc4c(cnn4-c4ccc(F)nc4)C[C@]3(C(=O)c3cc(C(F)(F)F)ccn3)C2)n1 [Example 11, N-cyclopropyl-N-((4aS,6S)-1-(6-fluoropyridin-3-yl)-4a-(4-(trifluoromethyl)picolinoyl)-4,4a,5,6,7,8-hexahydro-1H-benzo[f]indazol-6-yl)-1-methyl-1H-1,2,4-triazole-3-sulfonamide] |
| ≤ 100 nM | Cn1cc(S(=O)(=O)N(CC(F)F)[C@H]2CCC3=Cc4c(cnn4-c4ccc(F)cc4)C[C@]3(C(=O)c3ncc(C(F)(F)F)s3)C2)cn1 [Example 12] |
| ≤ 100 nM | Cn1cc(S(=O)(=O)N(C2CC(F)(F)C2)[C@H]2CCC3=Cc4c(cnn4-c4ccc(F)cc4)C[C@]3(C(=O)c3cc(Cl)ccn3)C2)cn1 [Example 13] |
| ≤ 100 nM | Cn1cnc(S(=O)(=O)N([C@H]2CCC3=Cc4c(cnn4-c4ccc(F)cc4)C[C@]3(C(=O)c3ncc(C(F)(F)F)s3)C2)[C@H]2C[C@@H](C#N)C2)n1 [Example 14] |
| ≤ 100 nM | Cn1cc(S(=O)(=O)C[C@H]2CCC3=Cc4c(cnn4-c4ccc(F)cc4)C[C@]3(C(=O)c3cc(F)ccn3)C2)cn1 [Example 15] |
| ≤ 100 nM | Cn1cc(S(=O)(=O)N(C2CC2)[C@H]2CCC3=Cc4c(cnn4-c4ccc(F)nc4)C[C@]3(C(=O)c3ncc(C(F)(F)F)s3)C2)cn1 [Example 16] |
| ≤ 100 nM | Cn1ncnc1S(=O)(=O)[C@H]1CCC2=Cc3c(cnn3-c3ccc(F)cc3)C[C@]2(C(=O)c2cc(C(F)(F)F)ccn2)C1 [Example 17] |
| ≤ 100 nM | Cn1cc(S(=O)(=O)N(C2CC2)[C@H]2CCC3=Cc4c(cnn4-c4ccc(F)nc4)C[C@]3(C(=O)c3cc(C(F)(F)F)ccn3)C2)cn1 [Example 18] |
| ≤ 100 nM | O=C(c1cc(C(F)(F)F)ccn1)[C@]12Cc3cnn(-c4ccc(F)nc4)c3C=C1CC[C@H](N(C1CC1)S(=O)(=O)c1ccc(F)cc1)C2 [Example 19] |
| ≤ 100 nM | CN(C)C(=O)CN([C@H]1CCC2=Cc3c(cnn3-c3ccc(F)cc3)C[C@]2(C(=O)c2cc(C(F)(F)F)ccn2)C1)S(=O)(=O)c1ccn(C)n1 [Example 21] |
| ≤ 100 nM | Cn1cnc(S(=O)(=O)N(C2CC2)[C@H]2CCC3=Cc4c(cnn4-c4ccc(F)cc4)C[C@]3(C(=O)c3csc(C(F)(F)F)n3)C2)n1 [Example 22] |
| ≤ 100 nM | O=C(c1cc(F)ccn1)[C@]12Cc3cnn(-c4ccc(F)cc4)c3C=C1CC[C@H](N(C1CC(F)(F)C1)S(=O)(=O)c1ccc(F)cc1)C2 [Example 23] |
| ≤ 100 nM | O=C(c1cc(Cl)ccn1)[C@]12Cc3cnn(-c4ccc(F)cc4)c3C=C1CC[C@H](N(C1CC(F)(F)C1)S(=O)(=O)c1ccc(F)cc1)C2 [Example 24] |
| ≤ 100 nM | O=C(c1cc(F)ccn1)[C@]12Cc3cnn(-c4ccc(F)cc4)c3C=C1CC[C@H](N(CC(F)F)S(=O)(=O)c1ccc(F)cc1)C2 [Example 25] |
| ≤ 100 nM | Cn1cc(S(=O)(=O)C[C@H]2CCC3=Cc4c(cnn4-c4ccc(F)cc4)C[C@]3(C(=O)c3cc(Cl)ccn3)C2)cn1 [Example 26] |
